US10285989B2, “Pyrimidinone amide compounds as PDE2 inhibitors” (Merck Sharp & Dohme Corp., priority 2015, dated 2019)
Where two headings read alike, the source gives them in different places.

Assays:
[1] = molecular target: human PDE2A1 (Homo sapiens (Human), UniProt O00408); assay: PDE2 IMAP FP inhibition assay, human PDE2A1 (selectivity panel format); format: biochemical
Summary of the method: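 Enzyme dosed to give about 20% substrate turnover acts for 60 min at room temperature on 50 nM FAM-cAMP plus 1000 nM cGMP (Tris pH 7.2, MgCl2, DTT, Tween-20 buffer). IMAP binding solution then stops the reaction; after 1 h, polarization is measured from parallel and perpendicular fluorescence.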

[2] = molecular target: P-glycoprotein (P-gp) (Homo sapiens (Human), UniProt P08183); assay: P-gp transport, experimental BA/AB ratio, human; format: in vitro ADME; conditions: LLC-PK1, 1 μM substrate concentration
Sequence of P-glycoprotein (P-gp) (P08183 whole entry): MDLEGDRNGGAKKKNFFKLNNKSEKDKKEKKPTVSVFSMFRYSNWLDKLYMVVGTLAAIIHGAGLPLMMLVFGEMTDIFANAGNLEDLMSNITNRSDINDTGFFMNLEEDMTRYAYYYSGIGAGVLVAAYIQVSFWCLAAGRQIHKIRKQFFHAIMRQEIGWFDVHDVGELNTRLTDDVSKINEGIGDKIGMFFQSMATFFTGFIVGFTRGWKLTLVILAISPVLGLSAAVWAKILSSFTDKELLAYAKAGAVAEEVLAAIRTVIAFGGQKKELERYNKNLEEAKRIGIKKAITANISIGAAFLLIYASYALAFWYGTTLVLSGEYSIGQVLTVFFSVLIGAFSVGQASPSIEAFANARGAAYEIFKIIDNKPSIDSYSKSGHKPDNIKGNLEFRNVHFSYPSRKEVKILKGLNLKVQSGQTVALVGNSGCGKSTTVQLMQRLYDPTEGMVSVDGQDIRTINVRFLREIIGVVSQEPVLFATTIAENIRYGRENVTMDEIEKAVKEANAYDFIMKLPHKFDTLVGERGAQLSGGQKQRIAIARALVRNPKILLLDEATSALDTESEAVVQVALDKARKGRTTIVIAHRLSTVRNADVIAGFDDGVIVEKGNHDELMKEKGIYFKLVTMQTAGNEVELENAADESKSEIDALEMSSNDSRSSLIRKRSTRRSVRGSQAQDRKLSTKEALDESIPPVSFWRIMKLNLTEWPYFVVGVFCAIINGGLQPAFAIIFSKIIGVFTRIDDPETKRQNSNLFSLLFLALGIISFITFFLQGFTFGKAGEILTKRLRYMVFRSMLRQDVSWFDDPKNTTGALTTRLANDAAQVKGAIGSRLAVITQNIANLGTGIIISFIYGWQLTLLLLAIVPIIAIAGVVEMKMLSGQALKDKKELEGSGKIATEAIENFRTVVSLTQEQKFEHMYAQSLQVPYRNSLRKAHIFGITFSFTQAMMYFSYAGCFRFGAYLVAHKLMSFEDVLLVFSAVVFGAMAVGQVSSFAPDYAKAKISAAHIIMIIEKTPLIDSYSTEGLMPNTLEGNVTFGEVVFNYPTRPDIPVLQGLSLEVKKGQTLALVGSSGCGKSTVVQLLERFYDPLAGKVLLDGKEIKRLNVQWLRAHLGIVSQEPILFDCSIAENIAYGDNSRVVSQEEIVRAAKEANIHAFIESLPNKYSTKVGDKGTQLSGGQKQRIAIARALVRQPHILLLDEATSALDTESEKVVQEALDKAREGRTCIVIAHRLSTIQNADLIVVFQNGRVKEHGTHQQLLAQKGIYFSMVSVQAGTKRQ
Text: (§1) See Doan et al. “Passive permeability and P-glycoprotein-mediated efflux differentiate central nervous system (CNS) and non-CNS marketed drugs”, J. Pharm. Exper. […] Desirable human BA/AB ratio is less than 2.0. […] See, for example, Desai, et al. Integration of in Silico and in Vitro Tools for Scaffold Optimization during Drug Discovery: Predicting P-glycoprotein Efflux” Mol. Pharmac.

[3] = molecular target: P-glycoprotein (P-gp, rat Mdr1a) (Rattus norvegicus, UniProt Q6PSM0); assay: P-gp transport, experimental BA/AB ratio, rat LLC-Mdr1a; format: in vitro ADME; conditions: LLC-PK1; rat LLC-Mdrla; 1 μM substrate concentration
Sequence of P-glycoprotein (P-gp, rat Mdr1a) (Q6PSM0 1-1272): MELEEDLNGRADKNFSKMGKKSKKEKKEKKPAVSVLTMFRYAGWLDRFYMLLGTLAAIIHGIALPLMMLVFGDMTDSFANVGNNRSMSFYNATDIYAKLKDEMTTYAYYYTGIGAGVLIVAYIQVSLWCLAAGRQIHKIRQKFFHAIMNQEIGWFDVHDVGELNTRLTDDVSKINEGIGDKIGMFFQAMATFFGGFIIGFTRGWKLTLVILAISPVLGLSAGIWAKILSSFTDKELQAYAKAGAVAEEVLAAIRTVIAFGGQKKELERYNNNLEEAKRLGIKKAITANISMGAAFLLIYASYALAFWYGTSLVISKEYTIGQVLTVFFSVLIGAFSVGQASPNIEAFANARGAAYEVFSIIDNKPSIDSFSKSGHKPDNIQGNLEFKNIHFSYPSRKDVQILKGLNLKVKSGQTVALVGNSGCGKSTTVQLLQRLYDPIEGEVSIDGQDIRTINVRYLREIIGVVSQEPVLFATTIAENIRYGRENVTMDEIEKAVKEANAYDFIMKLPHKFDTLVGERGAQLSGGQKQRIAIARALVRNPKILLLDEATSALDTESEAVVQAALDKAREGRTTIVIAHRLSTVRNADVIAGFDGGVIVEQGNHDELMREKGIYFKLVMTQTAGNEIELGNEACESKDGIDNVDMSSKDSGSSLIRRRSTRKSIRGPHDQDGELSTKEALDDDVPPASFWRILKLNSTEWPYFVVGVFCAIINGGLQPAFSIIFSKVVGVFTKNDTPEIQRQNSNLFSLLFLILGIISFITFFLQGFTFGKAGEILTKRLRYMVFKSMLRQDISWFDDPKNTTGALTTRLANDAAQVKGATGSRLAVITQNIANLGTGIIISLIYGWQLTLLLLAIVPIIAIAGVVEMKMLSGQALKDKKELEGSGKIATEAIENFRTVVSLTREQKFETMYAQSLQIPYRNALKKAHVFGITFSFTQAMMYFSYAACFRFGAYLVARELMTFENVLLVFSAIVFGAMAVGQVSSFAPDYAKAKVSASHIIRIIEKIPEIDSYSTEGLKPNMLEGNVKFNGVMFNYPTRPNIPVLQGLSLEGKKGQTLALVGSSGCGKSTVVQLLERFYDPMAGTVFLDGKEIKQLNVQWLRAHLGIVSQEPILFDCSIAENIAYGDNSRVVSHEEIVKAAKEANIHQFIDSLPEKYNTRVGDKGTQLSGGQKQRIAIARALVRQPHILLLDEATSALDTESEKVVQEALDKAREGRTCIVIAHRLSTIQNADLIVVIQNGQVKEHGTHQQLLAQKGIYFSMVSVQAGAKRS
Text: as §1

[4] = molecular target: Rhesus PDE2A3 (Macaca mulatta, UniProt B3VTJ2); assay: PDE2 fluorescence polarization (IMAP FP) inhibition assay, rhesus PDE2A3; format: biochemical, rhesus macaque
Sequence of Rhesus PDE2A3 (B3VTJ2 1-941): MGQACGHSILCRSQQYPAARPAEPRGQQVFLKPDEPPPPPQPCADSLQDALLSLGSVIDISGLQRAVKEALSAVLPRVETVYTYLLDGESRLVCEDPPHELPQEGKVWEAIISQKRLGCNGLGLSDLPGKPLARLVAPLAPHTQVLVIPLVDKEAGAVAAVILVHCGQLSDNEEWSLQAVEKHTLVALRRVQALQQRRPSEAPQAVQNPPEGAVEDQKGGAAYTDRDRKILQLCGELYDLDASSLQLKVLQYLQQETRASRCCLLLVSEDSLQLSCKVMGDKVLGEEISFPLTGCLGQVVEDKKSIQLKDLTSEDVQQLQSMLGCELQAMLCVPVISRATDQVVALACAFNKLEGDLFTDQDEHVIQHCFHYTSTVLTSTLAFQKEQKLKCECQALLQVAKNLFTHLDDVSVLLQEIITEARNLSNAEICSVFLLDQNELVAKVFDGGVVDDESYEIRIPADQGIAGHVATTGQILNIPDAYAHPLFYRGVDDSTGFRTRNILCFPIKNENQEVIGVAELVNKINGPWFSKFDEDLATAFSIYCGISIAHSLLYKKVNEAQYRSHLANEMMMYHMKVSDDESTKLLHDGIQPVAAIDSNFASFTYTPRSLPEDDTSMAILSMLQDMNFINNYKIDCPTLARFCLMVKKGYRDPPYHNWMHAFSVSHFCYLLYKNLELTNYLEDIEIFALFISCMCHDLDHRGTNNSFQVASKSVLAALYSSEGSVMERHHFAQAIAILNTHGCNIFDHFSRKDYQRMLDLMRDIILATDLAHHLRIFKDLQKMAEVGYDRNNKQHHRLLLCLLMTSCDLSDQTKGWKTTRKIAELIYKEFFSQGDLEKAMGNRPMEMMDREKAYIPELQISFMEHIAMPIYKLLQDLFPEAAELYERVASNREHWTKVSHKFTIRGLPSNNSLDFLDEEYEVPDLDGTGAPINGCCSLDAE

[5] = Lab A, read-out: Human PDE2 Ki (nM) - Lab A
[6] = Lab A, read-out: Rhesus PDE2 Ki (nM) - Lab A
[7] = Lab B, read-out: Human PDE2 Ki (nM) - Lab B
[8] = Lab B, read-out: Rhesus PDE2 Ki (nM) - Lab B

Sequence of human PDE2A1 (O00408 other isoform, or with tags, fused parts or gaps): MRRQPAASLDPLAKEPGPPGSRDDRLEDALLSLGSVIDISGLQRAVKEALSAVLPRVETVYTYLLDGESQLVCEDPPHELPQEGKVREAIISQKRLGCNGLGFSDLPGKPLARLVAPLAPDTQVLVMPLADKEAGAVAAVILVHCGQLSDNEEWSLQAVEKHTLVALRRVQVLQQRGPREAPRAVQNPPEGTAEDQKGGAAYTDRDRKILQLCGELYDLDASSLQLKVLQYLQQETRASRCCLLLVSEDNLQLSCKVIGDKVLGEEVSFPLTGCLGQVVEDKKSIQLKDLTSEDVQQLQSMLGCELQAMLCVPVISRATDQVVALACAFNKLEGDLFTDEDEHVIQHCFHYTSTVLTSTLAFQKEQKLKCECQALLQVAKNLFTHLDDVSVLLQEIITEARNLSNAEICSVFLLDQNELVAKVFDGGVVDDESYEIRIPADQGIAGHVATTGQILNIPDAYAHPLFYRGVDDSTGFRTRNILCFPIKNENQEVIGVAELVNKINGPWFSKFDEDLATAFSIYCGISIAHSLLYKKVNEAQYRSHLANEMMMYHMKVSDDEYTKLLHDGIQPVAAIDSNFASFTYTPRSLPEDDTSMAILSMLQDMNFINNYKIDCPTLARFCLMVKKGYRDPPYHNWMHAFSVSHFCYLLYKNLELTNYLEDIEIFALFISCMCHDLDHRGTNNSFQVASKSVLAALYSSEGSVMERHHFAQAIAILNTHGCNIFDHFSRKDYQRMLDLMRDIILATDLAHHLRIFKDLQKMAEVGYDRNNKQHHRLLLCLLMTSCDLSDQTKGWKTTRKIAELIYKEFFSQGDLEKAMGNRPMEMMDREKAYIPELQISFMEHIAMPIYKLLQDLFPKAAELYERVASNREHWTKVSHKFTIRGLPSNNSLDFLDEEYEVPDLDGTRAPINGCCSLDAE

Compound	Ki [1, 5] [nM]	efflux ratio at 1 μM [2]	efflux ratio at 1 μM [3]	Ki [4, 6] [nM]	Ki [1, 7] [nM]	Ki [4, 8] [nM]
CNc1nc(C(=O)N[C@H](C)c2ccc(SC(F)(F)F)cc2)cc(=O)[nH]1 [Example 144, 2-(methylamino)-6-oxo-N-[(1R)-1-{4-[(trifluoromethyl)sulfanyl]phenyl}ethyl]-1,6-dihydro-pyrimidine-4-carboxamide]	3.4	3.3	14.2	5.7	–	–
C[C@@H](NC(=O)c1cc(=O)[nH]c(N)n1)c1ccc(SC(F)(F)F)cc1 [Example 145, 2-amino-6-oxo-N-[(1R)-1-{4-[(trifluoromethyl)sulfanyl]phenyl}ethyl]-1,6-dihydro-pyrimidine-4-carboxamide]	23	3.2	28.9	35	–	–
C[C@@H](NC(=O)c1cc(=O)[nH]c(N2CCCC2)n1)c1ccc(SC(F)(F)F)cc1 [Example 146, 6-oxo-2-pyrrolidin-1-yl-N-[(1R)-1-{4-[(trifluoromethyl)sulfanyl]phenyl}ethyl]-1,6-dihydro-pyrimidine-4-carboxamide]	0.36	0.9	5.4	0.43	–	–
CC(C)[C@@H](NC(=O)c1cc(=O)[nH]c(N2CCCC2)n1)c1ccc(SC(F)(F)F)cc1 [Example 147, N-[(1R)-2-methyl-1-{4-[(trifluoromethyl)sulfanyl]phenyl}propyl]-6-oxo-2-pyrrolidin-1-yl-1,6-dihydropyrimidine-4-carboxamide]	–	0.7	5.9	0.19	0.26	0.15
CC(C)[C@@H](NC(=O)c1cc(=O)[nH]c(N2CCC2)n1)c1ccc(SC(F)(F)F)cc1 [Example 148, 2-azetidin-1-yl-N-[(1R)-2-methyl-1-{4-[(trifluoromethyl)sulfanyl]phenyl}propyl]-6-oxo-1,6-dihydropyrimidine-4-carboxamide]	0.2	1.3	9.5	0.42	–	–
CC(C)[C@@H](NC(=O)c1cc(=O)[nH]c(N(C)C)n1)c1ccc(SC(F)(F)F)c(F)c1 [Example 150, 2-(dimethylamino)-N-[(1R)-1-{3-fluoro-4-[(trifluoromethyl)sulfanyl]phenyl}-2-methylpropyl]-6-oxo-1,6-dihydropyrimidine-4-carboxamide]	–	1.1	4.4	0.24	0.29	0.29
CNc1nc(C(=O)N[C@@H](c2ccc(OC(F)(F)F)c(F)c2)C(C)C)cc(=O)[nH]1 [Example 151, N-{(1R)-1-[3-fluoro-4-(trifluoromethoxy)phenyl]-2-methylpropyl}-2-(methylamino)-6-oxo-1,6-dihydro-pyrimidine-4-carboxamide]	2.8	6.5	18.7	4.7	–	–
CC(C)[C@@H](NC(=O)c1cc(=O)[nH]c(N)n1)c1ccc(OC(F)(F)F)c(F)c1 [Example 152, 2-amino-N-{(1R)-1-[3-fluoro-4-(trifluoromethoxy)phenyl]-2-methylpropyl}-6-oxo-1,6-dihydropyrimidine-4-carboxamide]	19	11.6	29.2	33	–	–
CC(C)[C@@H](NC(=O)c1cc(=O)[nH]c(N)n1)c1ccc(SC(F)(F)F)cc1 [Example 154, 2-amino-N-[(1R)-2-methyl-1-{4-[(trifluoromethyl)sulfanyl]phenyl}propyl]-6-oxo-1,6-dihydropyrimidine-4-carboxamide]	9.9	10.4	24.7	18	–	–
CNc1nc(C(=O)N[C@@H](c2ccc(SC(F)(F)F)c(F)c2)C(C)C)cc(=O)[nH]1 [Example 155, N-[(1R)-1-{3-fluoro-4-[(trifluoromethyl)sulfanyl]phenyl}-2-methylpropyl]-2-(methylamino)-6-oxo-1,6-dihydropyrimidine-4-carboxamide]	1.2	4.2	9	4.3	–	–
CC(C)[C@@H](NC(=O)c1cc(=O)[nH]c(N)n1)c1ccc(SC(F)(F)F)c(F)c1 [Example 156, 2-amino-N-[(1R)-1-{3-fluoro-4-[(trifluoromethyl)sulfanyl]phenyl}-2-methylpropyl]-6-oxo-1,6-dihydropyrimidine-4-carboxamide]	10	11.1	11.3	24	–	–
C[C@@H](NC(=O)c1cc(=O)[nH]c(N2Cc3ccncc3C2)n1)c1ccc(C(F)(F)F)cc1 [Example 160, 2-(1,3-dihydro-2H-pyrrolo[3,4-c]pyridin-2-yl)-6-oxo-N-{(1R)-1-[4-(trifluoromethyl)phenyl]ethyl}-1,6-dihydropyrimidine-4-carboxamide]	1	17.1	28.8	1.6	–	–
C[C@@H](NC(=O)c1cc(=O)[nH]c(N2Cc3cncnc3C2)n1)c1ccc(C(F)(F)F)cc1 [Example 161, 2-(5,7-dihydro-6H-pyrrolo[3,4-d]pyrimidin-6-yl)-6-oxo-N-{(1R)-1-[4-(trifluoromethyl)phenyl]ethyl}-1,6-dihydropyrimidine-4-carboxamide]	5	14.6	23.7	5.1	–	–
CC(C)[C@@H](NC(=O)c1cc(=O)[nH]c(N2CC[C@H](F)C2)n1)c1ccc(OC(F)(F)F)c(F)c1 [Example 162, 2-[(3S)-3-fluoropyrrolidin-1-yl]-N-{(1R)-1-[3-fluoro-4-(trifluoromethoxy)phenyl]-2-methylpropyl}-6-oxo-1,6-dihydropyrimidine-4-carboxamide]	–	2.5	17.9	0.51	0.61	–
CC(C)[C@@H](NC(=O)c1cc(=O)[nH]c(N2CC[C@@H](F)C2)n1)c1ccc(OC(F)(F)F)c(F)c1 [Example 163, 2-[(3R)-3-fluoropyrrolidin-1-yl]-N-{(R)-1-[3-fluoro-4-(trifluoromethoxy)phenyl]-2-methylpropyl}-6-oxo-1,6-dihydropyrimidine-4-carboxamide]	–	0.7	15.8	4.1	4.2	5
CC(C)[C@@H](NC(=O)c1cc(=O)[nH]c(N2CC(F)C2)n1)c1ccc(OC(F)(F)F)c(F)c1 [Example 164, 2-(3-fluoroazetidin-1-yl)-N-{(1R)-1-[3-fluoro-4-(trifluoromethoxy)phenyl]-2-methylpropyl}-6-oxo-1,6-dihydropyrimidine-4-carboxamide]	–	2.6	7.5	2.4	3.9	4
CC(C)[C@@H](NC(=O)c1cc(=O)[nH]c(N2CC[C@H](F)C2)n1)c1ccc(SC(F)(F)F)c(F)c1 [Example 165, 2-[(3S)-3-fluoropyrrolidin-1-yl]-N-[(1R)-1-{3-fluoro-4-[(trifluoromethyl)sulfanyl]phenyl}-2-methylpropyl]-6-oxo-1,6-dihydropyrimidine-4-carboxamide]	–	3.6	20.1	0.33	0.45	0.5
O=C(N[C@@H](c1ccc(C(F)(F)F)cc1)C1CC1)c1cc(=O)[nH]c(N2CC[C@H](F)C2)n1 [Example 167, N-{(R)-cyclopropyl[4-(trifluoromethyl)phenyl]methyl}-2-[(3S)-3-fluoropyrrolidin-1-yl]-6-oxo-1,6-dihydropyrimidine-4-carboxamide]	–	1.9	27.4	–	2.3	1.4
CC(C)[C@@H](NC(=O)c1cc(=O)[nH]c(N2CC[C@H](F)C2)n1)c1ccc(C(F)(F)F)c(F)c1 [Example 168, 2-[(3S)-3-fluoropyrrolidin-1-yl]-N-{(1R)-1-[3-fluoro-4-(trifluoromethyl)phenyl]-2-methylpropyl}-6-oxo-1,6-dihydropyrimidine-4-carboxamide]	–	4.1	21.2	–	0.47	0.5
CC(C)(C)[C@@H](NC(=O)c1cc(=O)[nH]c(N2CC[C@H](F)C2)n1)c1ccc(C(F)(F)F)cc1 [Example 169, N-{(1R)-2,2-dimethyl-1-[4-(trifluoromethyl)phenyl]propyl}-2-[(3S)-3-fluoropyrrolidin-1-yl]-6-oxo-1,6-dihydropyrimidine-4-carboxamide]	–	2.5	9.8	–	0.17	0.14
CCCOc1nc(C(=O)N[C@H](C)c2ccc(C(F)(F)F)cc2)cc(=O)[nH]1 [Example 178, 6-oxo-2-propoxy-N-{(1R)-1-[4-(trifluoromethyl)phenyl]ethyl}-1,6-dihydropyrimidine-4-carboxamide]	52	0.4	1	58	–	–
